{
  "source": "patent US8399462B2",
  "about": "“JNK modulators” (Roche Palo Alto LLC, priority 2006, dated 2013)",
  "note": "Where “and” joins values, the source holds several entries; their conditions need not be identical. Equal values may be shown once.",
  "data": [
    {"values": [
      {"compound": "COC[C@@H]1CCCN1C(=O)[C@H]1CC[C@H](Nc2nccc(-n3ccc4c(OCCCS(C)(=O)=O)cccc43)n2)CC1", "note": "(stereo in doubt) [Compound 266, (4-{4-[4-(3-methane-sulfonyl-propoxy)-indol-1-yl]-pyrimidin-2-ylamino}-cyclohexyl)-(2-methoxymethyl-pyrrolidin-1-yl)-methanone]", "melting point": "92 to 93 °C"},
      {"compound": "CC(=O)N[C@H]1CC[C@H](Nc2nccc(-n3ncc4c(OCCO)cccc43)n2)CC1", "note": "[Compound 130, N-(4-{4-[4-(2-hydroxy-ethoxy)-indazol-1-yl]-pyrimidin-2-ylamino}-cyclohexyl)-acetamide]", "melting point": "242.7 to 245.5 °C"},
      {"compound": "CS(=O)(=O)CCCOc1cccc2c1cnn2-c1ccnc(N[C@H]2CC[C@H](C(=O)N3CCC(O)CC3)CC2)n1", "note": "[Compound 184, (4-hydroxy-piperidin-1-yl)-(4-{4-[4-(3-methane-sulfonyl-propoxy)-indazol-1-yl]-pyrimidin-2-ylamino}-cyclohexyl)-methanone]", "melting point": "143 to 145 °C"},
      {"compound": "CN(C)C(=O)[C@H]1CC[C@H](Nc2nccc(-n3ccc4c(OCCCS(C)(=O)=O)cccc43)n2)CC1", "note": "[Compound 251, 4-{4-[4-(3-methane-sulfonyl-propoxy)-indol-1-yl]-pyrimidin-2-ylamino}-cyclohexane-carboxylic acid dimethylamide]", "melting point": "169 to 170 °C"},
      {"compound": "CN(C)S(=O)(=O)CCCOc1cccc2c1cnn2-c1ccnc(N[C@H]2CC[C@H](C(=O)N3CCC(O)CC3)CC2)n1", "note": "[Compound 229, 3-(1-{2-[4-(4-hydroxy-piperidin-1-carbonyl)-cyclohexylamino]-pyrimidin-4-yl}-1H-indazol-4-yloxy)-propane-1-sulfonic acid dimethylamide]", "melting point": "190 to 191 °C"},
      {"compound": "CCOC(=O)[C@H]1CC[C@H](Nc2nccc(-n3ccc4c(OCCCS(N)(=O)=O)cccc43)n2)CC1", "note": "[Compound 318, 4-{4-[4-(3-sulfamoyl-propoxy)-indol-1-yl]-pyrimidin-2-ylamino}-cyclohexanecarboxylic acid ethyl ester]", "melting point": "145 to 148 °C"},
      {"compound": "CS(=O)(=O)CCCOc1cccc2c1ccn2-c1ccnc(N[C@H]2CC[C@H](C(=O)N3CCCC(C#N)C3)CC2)n1", "note": "(stereo partly drawn) [Compound 264, 1-(4-{4-[4-(3-methane-sulfonyl-propoxy)-indol-1-yl]-pyrimidin-2-ylamino}-cyclohexane-carbonyl)-piperidine-3-carbonitrile]", "melting point": "132 to 133 °C"},
      {"compound": "NS(=O)(=O)CCCOc1cccc2c1cnn2-c1ccnc(N[C@H]2CC[C@H](C(=O)N3CCC(O)CC3)CC2)n1", "note": "[Compound 243, 3-(1-{2-[4-(4-hydroxy-piperidine-1-carbonyl)-cyclohexylamino]-pyrimidin-4-yl}-1H-indazol-4yloxy)-propane-1-sulfonic acid amide]", "melting point": "237 to 238 °C"},
      {"compound": "CS(=O)(=O)CCCOc1cccc2c1ccn2-c1ccnc(N[C@H]2CC[C@H](N)CC2)n1.Cl", "melting point": "291 to 292 °C"},
      {"compound": "COC(=O)c1cccc2c1ccn2-c1ccnc(N[C@H]2CC[C@H](NS(=O)(=O)C3CC3)CC2)n1", "note": "[Compound 257, 1-[2-(4-cyclopropane-sulfonylamino-cyclo-hexylamino)-pyrimidin-4-yl]-1H-indole-4-carboxylic acid methyl ester]", "melting point": "250 to 251 °C"},
      {"compound": "CC(=O)N[C@H]1CC[C@H](Nc2nccc(-n3ccc4c(C(C)(C)C#N)cccc43)n2)CC1", "note": "[Compound 176, N-(4-{4-[4-(2-cyano-prop-2-yl)-indol-1-yl]-pyrimidin-2-ylamino}-cyclohexyl)-acetamide]", "melting point": "238 to 239 °C"},
      {"compound": "CN(C)C1CCN(C(=O)[C@H]2CC[C@H](Nc3nccc(-n4ccc5c(OCCCS(C)(=O)=O)cccc54)n3)CC2)CC1", "note": "[Compound 275, (4-dimethylamino-piperidin-1-yl)-(4-{4-[4-(3-methanesulfonyl-propoxy)-indol-1-yl]-pyrimidin-2-ylamino}-cyclohexyl)-methanone]", "melting point": "182.4 to 183 °C and 178.9 to 180.6 °C"},
      {"compound": "CC(C)(O)[C@H]1CC[C@H](Nc2nccc(-n3cc(C(N)=O)c4ccccc43)n2)CC1", "note": "[Compound 277, 1-{2-[4-(2-hydroxy-prop-2-yl)-cyclohexyl-amino]-pyrimidin-4-yl}-1H-indole-3-carboxylic acid amide]", "melting point": "222 to 223 °C"},
      {"compound": "CS(=O)(=O)N[C@H]1CC[C@H](Nc2ncc(F)c(-n3ccc4ccccc43)n2)CC1", "note": "[Compound 115, N-[4-(5-fluoro-4-indol-1-yl-pyrimidin-2-ylamino)-cyclohexyl]-methanesulfonamide]", "melting point": "270 to 270.5 °C"},
      {"compound": "CCc1cccc2c1cnn2-c1ccnc(N[C@H]2CC[C@H](O)CC2)n1", "note": "[Compound 99, 4-[4-(4-ethylindazol-1-yl)-pyrimidin-2-yl-amino]-cyclohexanol]", "melting point": "170.2 to 174.4 °C"},
      {"compound": "CC(C)COc1cccc2c1cnn2-c1ccnc(N[C@H]2CC[C@H](N(C)S(C)(=O)=O)CC2)n1", "note": "[Compound 191, N-{4-[4-(4-isobutoxy-indazol-1-yl)-pyrimidin-2-ylamino]-cyclohexyl}-N-methyl-methanesulfonamide]", "melting point": "227 to 228 °C"},
      {"compound": "COc1cccc2c1cnn2-c1ccnc(N[C@H]2CC[C@H](C(=O)N3CCCC3)CC2)n1", "note": "[Compound 125, {4-[4-(4-methoxy-indazol-1-yl)-pyrimidin-2-ylamino]-cyclohexyl}-pyrrolidin-1-ylmethanone]", "melting point": "246.5 to 247 °C"},
      {"compound": "O[C@H]1CC[C@H](Nc2nccc(-n3ncc4c(OCC5CC5)cccc43)n2)CC1", "note": "[Compound 94, 4-[4-(4-cyclopropyl-methoxy-indazol-1-yl)-pyrimidin-2-ylamino]-cyclohexanol]", "melting point": "> 300 °C"},
      {"compound": "CS(=O)(=O)CCCOc1cccc2c1cnn2-c1ccnc(N[C@H]2CC[C@H](C(=O)c3ccccc3)CC2)n1", "note": "[Compound 255, (4-{4-[4-(3-methane-sulfonyl-propoxy)-indazol-1-yl]-pyrimidin-2-ylamino}-cyclohexyl)-phenyl-methanone]", "melting point": "174.5 to 175.5 °C"},
      {"compound": "CC(C)(O)c1cccc2c1ccn2-c1ccnc(N[C@H]2CC[C@H](NS(C)(=O)=O)CC2)n1", "note": "[Compound 117, N-(4-{4-[4-(1-hydroxy-1-methylethyl)-indol-1-yl]-pyrimidin-2-yl-amino}-cyclohexyl)-methanesulfonamide]", "melting point": "247 to 249.6 °C"},
      {"compound": "CS(=O)(=O)CCCOc1cccc2c1cnn2-c1ccnc(N[C@H]2CC[C@H](NS(C)(=O)=O)CC2)n1", "note": "[Compound 156, N-(4-{4-[4-(3-methane-sulfonyl-propoxy)-indazol-1-yl]-pyrimidin-2-ylamino}-cyclohexyl)-methanesulfonamide]", "melting point": "247 to 248 °C"},
      {"compound": "O[C@H]1CC[C@H](Nc2nccc(-c3noc4ccc(F)cc34)n2)CC1", "note": "[Compound 83, 4-[4-(5-fluorobenzo[d]-isoxazol-3-yl)-pyrimidin-2-ylamino]-cyclohexanol]", "melting point": "172 to 173.9 °C"},
      {"compound": "COc1cccc2c1c(C(N)=O)cn2-c1ccnc(N[C@H]2CC[C@H](N(C)S(C)(=O)=O)CC2)n1", "note": "[Compound 283, 1-{2-[4-(methane-sulfonyl-methylamino)-cyclohexylamino]-pyrimidin-4-yl}-4-methoxy-1H-indole-3-carboxylic acid amide]", "melting point": "285 to 287 °C"},
      {"compound": "O=C(COc1cccc2c1cnn2-c1ccnc(N[C@H]2CC[C@H](O)CC2)n1)N[C@H]1CC[C@H](O)CC1", "note": "[Compound 95, N-(4-hydroxy-cyclo-hexyl)-2-{1-[2-(4-hydroxy-cyclohexyl-amino)-pyrimidin-4-yl]-1H-indazol-4-yloxy}-acetamide]", "melting point": "220 to 222.3 °C"}
    ]}
  ]
}
